# Assay results published in patent publication US4929739A, “Complexes of tellurium and selenium derivatives” (Bar-Ilan University, priority 1988, dated 1990).
# Like-named read-outs stand apart in the source and are kept apart here.
# Assays:
# [1] = preliminary toxicity studies in mice; format: in vivo; conditions: 6 week old mice
# Experimental: (§1) Preliminary toxicity studies in mice have established an LD50 of 300 μg./25 g of body weight in 6 week old mice for the compound of Example 1. The compounds may be used as anti-bacterial or anti-viral agents in plants or in animals. Virus infections such as West Nile virus infections in mice are susceptible to the compound of the Example 1 at a dose of 10 μg/day/mouse. Plant bacterial infections such as crown gall caused by Agrobacterium tumefaciens may be treated or prevented by the application of a 0.1% solution of compounds of the invention.
# West Nile virus = West Nile virus infections in mice; format: in vivo; conditions: 10 μg/day/mouse
# Experimental: as §1
# [2] = test system: producer T-cell lymphocytes; assay: lymphokine production in producer T-cell lymphocytes in vitro; format: cell-based; conditions: alone
# [3] = test system: producer T-cell lymphocytes; assay: lymphokine production in producer T-cell lymphocytes in vivo; conditions: alone
# IL-2 producer cells = assay: proliferation of IL-2 producer cells; format: cell-based
# IL-2 = assay: mouse spleen assay, IL-2 activity of supernatants (tritiated thymidine); format: cell-based, mouse (male Balb-c); conditions: for IL-2 activity, 12.5% supernatant / IL-2 activity, 25% supernatant: Table 1, PMA, 96 h; for IL-2 production, supernatant 12.5% / IL-2 production, supernatant 25%: Table 2; for IL-2 activity, 12.5% supernatant / IL-2 production, supernatant 12.5%: 12.5% supernatant; for IL-2 activity, 25% supernatant / IL-2 production, supernatant 25%: 25% supernatant
# Experimental: Two citrate buffer solutions are prepared by combining aqueous 0.05M sodium citrate with 0.05M citric acid or 0.1M sodium citrate and 0.1M citric acid. […] To these solutions are added up to 5 mg/ml of ammomium trichloro (dioxoethylene-0,0') tellurate.
# After storage at various temperatures for about two and a half months, dilutions of these solutions were prepared and a mouse spleen assay was performed as follows:
# Spleens were removed from male Balb-c mice 6 to 8 weeks of age. The spleen cells were pushed through stainless steel 60 mesh (U.S. standard) nets resting in […] Petri dishes containing PBS in order to separate the cells. The cells were then collected into centrifuge tubes and spun at 1000 rpm for 10 minutes. The supernatant was discarded and cells were treated with 5 ml of hypotonic buffer (0.15 MNH4 Cl; 0.01M KHCO3 dissolved in double distilled water, pH 7.2) for exactly two minutes. Thereafter, PBS* was added to the cells amd the test tubes were centrifuged for 10 minutes at 1000 rpm. The cells were rinsed twice and counted in a heamocytometer using trypan blue to test for viability. The cells were brought to a concentration of 10^7 viable cells/ml. […] Thereafter, the cells were incubated at 37° C., 7.5% CO2 for 96 h. Supernatants were collected and assayed for IL-2 activity using tritiated thymidine (^3 H-TdR).
# A 0.04M tartrate buffer in also prepared using the same procedures. The complex is formed by adding ammonium trichloro (dioxoethylene-0,0'-) tellurate to the aqueous tartrate buffer. The effectiveness of the complex in stimulating IL-2 production was determined in the mouse spleen assay.
# human mononuclear cells = assay: stimulation of human mononuclear cells, proliferation (3H-methylthymidine); format: cell-based; design: unit not given here; conditions: Table 3
# Experimental: Citrate and tartrate complexes of ammonium trichloro (dioxoethylene-0,0') tellurate are tested for the stimulation of human mononuclear cells.
# Venous whole blood (with heparin; Evans 10 IU/ml blood) is diluted with RPMI in a ratio of 1:1. […] Each tube is provided with 3 ml Lymphoprep and 6 to 7 ml diluted blood. The tubes are centrifuged 30 minutes at 1600 rpm at room temperature. After the centrifugation mononuclear cells are collected from the interphase fraction and washed with RPMI three times. The cells are resuspended in RPMI, counted on a hemocytometer, using trypan blue to test for viability and then are brought to a concentration of […] in enriched RPMI. The concentrations set forth in Table 3 were added in a volume of 10% of cell mixture. Aliquots of 0.2 ml from each sample were placed in wells of microplates (NUNC) (triplicates). The microplates are incubated for 72 hours at 37° C. after which ^ 3 H-methylthymidine, 1U Ci/well (Nuclear Research Center, Israel) are added to the cultures. Cells were further incubated overnight and harvested with a cell harvester.
# [4] = solubilization in aqueous buffer; format: physicochemical
# Description: The complexes of the invention may be formed by contacting a compound of Formulas A-E with a non-toxic pharmaceutically acceptable complexing agent which forms a water soluble complex with said tellurium or selenium compound. Suitable complexing agents include hydroxy polycarboxylic acids, polycarboxylic acids or polyhydroxy polycarboxylic acids. Generally, it is preferred to prepare the complexes of the invention by contacting a compound of Formulas A-E with a buffer system containing either citric acid or tartaric acid and a corresponding alkali metal salt thereof, such as sodium or potassium.
# Generally equimolar amounts of acids and the corresponding alkali metal salts may be combined in aqueous solutions with a compound of Formulas A-E to form the complex of the invention; 0.05M-0.5M concentration of the buffer are preferred but higher or lower amounts may be utilized provided that the concentration is adequate to dissolve the particular compound of Formulas A-E. Higher molarities may be used to provide concentrates that may be diluted prior to IV administration or to prepare other dosage forms. The amount of the compound of Formulas A-E is dependent on the ultimate use of the product. […] This is in contrast to the phosphate buffer (PBS) from which only about 200 mcg/ml of ammonium trichloro (dioxoethylene-0,0') tellurate can be solubilized. […]
smiles,measurement,setting,value
"Cl[Te]1(Cl)(Cl)OCCO1.N [Example 1, ammomium trichloro (dioxoethylene-0,0') tellurate]",LD50,[1],300 μg./25 g of body weight
same,susceptibility of West Nile virus infections,West Nile virus,susceptible
O=[Te]=O [TeO2],induction of lymphokine production in vitro,[2],will induce lymphokine production
same,induction of lymphokine production in vivo,[3],will induce lymphokine production
same,proliferation in producing cells such as IL-2 producer cells,IL-2 producer cells,will not cause proliferation
"Cl[TeH]1(Cl)(Cl)OCCO1 [ammonium trichloro (dioxoethylene-0,0') tellurate]","IL-2 activity, 12.5% supernatant",IL-2; 0.05 μg/ml,1865 cpm
same,"IL-2 activity, 25% supernatant",IL-2; 0.05 μg/ml,3762 cpm
same,"IL-2 activity, 12.5% supernatant",IL-2; 0.1 μg/ml,28035 cpm
same,"IL-2 activity, 25% supernatant",IL-2; 0.1 μg/ml,44378 cpm
same,"IL-2 activity, 25% supernatant",IL-2; 0.5 μg/ml ammonium trichloro(dioxoethylene) tellurate,43833 cpm
same,"IL-2 activity, 12.5% supernatant",IL-2; 0.5 μg/ml,35270 cpm
same,"IL-2 production, supernatant 12.5%",IL-2; 0.05 μg/ml,1865 cpm
same,"IL-2 production, supernatant 12.5%",IL-2; 0.1 μg/ml,28035 cpm
same,"IL-2 production, supernatant 25%",IL-2; 0.1 μg/ml,44378 cpm
same,"IL-2 production, supernatant 12.5%",IL-2; 0.5 μg/ml,35270 cpm
same,"IL-2 production, supernatant 25%",IL-2; 0.5 μg/ml,43833 cpm
same,"IL-2 production, supernatant 25%",IL-2,3762 cpm
same,proliferation of mononuclear cells,"human mononuclear cells; 0.05 μg/ml, PMA 0.5 ng/ml cells",6663
same,proliferation of mononuclear cells,"human mononuclear cells; 0.05 μg/ml, PMA 1.5 ng/ml cells",12923
same,proliferation of mononuclear cells,"human mononuclear cells; 0.1 μg/ml, PMA 0.5 ng/ml cells",19810
same,proliferation of mononuclear cells,"human mononuclear cells; 0.1 μg/ml, PMA 1.5 ng/ml cells",42857
same,proliferation of mononuclear cells,"human mononuclear cells; 0.5 μg/ml, PMA 0.5 ng/ml cells",2945
same,proliferation of mononuclear cells,"human mononuclear cells; 0.5 μg/ml, PMA 1.5 ng/ml cells",3287
same,solubility,"[4]; citrate buffer, aqueous buffer, read-out: concentration solubilized in citrate",≥ 5000 µg/mL
same,solubility,"[4]; phosphate buffer (pbs), read-out: concentration solubilized in phosphate buffer",~200 µg/mL
